Results from US20200254050A1, “STABLE COMPOSITIONS OF NEUROACTIVE PEPTIDES” (Naurex Inc., priority 2014, published 2020).
Residues, ends and D or L forms follow the SMILES beside them.

Assay: pH stability study of GLYX-13 150 mg/mL HCl formulations (40° C., 3 weeks), HPLC assay and related substances
Assay type: physicochemical
Description: Column: Waters Spherisorb ODS2, 3 μm, 4.6×250 mm, Part # PSS832115
Mobile phase A: 2.2 g/L heptanesulfonic acid, 6.7 g/L potassium dihydrogen phosphate, pH 2.5
Mobile phase B: 70/30 Methanol/Water
Column temperature: 40±1° C.
Sample temperature: 4±1° C.
Four formulations were prepared to examine dissolution of the drug based (Table 2). Each formulation was prepared at 35 mL and contained 5.25 g of GLYX-13.
Each formulation was prepared by adding the drug to a beaker and adjusting the volume to approximately 26 mL using purified water. The pH was adjusted using 5 M HCl that was added in small increments. The solution was mixed for 10 minutes after each adjustment and mixed for 30 minutes after reaching the desired pH. The pH of the solution was checked after 30 minutes and adjusted if needed. The solution was adjusted to 35 mL using purified water when a drift in pH was no longer observed. Each formulation was filled into vials (2.5 mL/vial), sealed with a stopper, and capped. The formulations were stored at 40° C. for 3 weeks and samples were removed weekly. All weekly samples were examined for appearance, tested for pH, assay and related substances using the HPLC assay.
Data were analyzed using the appropriate software designed for the assay and impurities HPLC method. Impurity 1 (RRT 0.43) is cyclo-proline-threonine (“diketopiperazine”). Impurity 2 (RRT 0.57) is proline-threonine amide. […]

rate of impurity formation at pH 7, fold greater than the rate at pH 4: approximately 6 fold
Structure (SMILES): CC(O)C(N)C(=O)N1CCCC1C(=O)N1CCCC1C(=O)NC(C(N)=O)C(C)O (stereo not shown) [GLYX-13] (H-TPPT-NH2; configuration not given here)
